{"source": "patent US20150126464A1", "about": "“THERAPEUTIC DRUG AND THERAPEUTIC METHOD FOR NEUROLOGICAL DISEASES INCLUDING ALZHEIMER'S DISEASE ASSOCIATED WITH 1,25D3-MARRS” (priority 2013, published 2015)", "key": {"[1]": {"tested_on": "normal mice", "assay": "Novel object recognition test in normal mice", "format": "in vivo, mouse", "method": "(§1) Diosgenin (Wako Pure Chemical Industries, Ltd., Osaka, Japan) was dissolved in ethanol at 10 times the final concentration to give a stock solution, and the stock solution was diluted in a 5% aqueous solution of glucose to the final concentration. The diosgenin solution was intraperitoneally administered to normal mice (ddY mice, male, 6 weeks old) once a day (10 μmol/kg/day) for 5 or 6 days. One hour after the last administration, each mouse was housed in a separate open-field box made of polyvinyl chloride (33 cm×28 cm; height: 26.5 cm), habituated to the environment for 10 minutes, and used in the test.\nUsing the mice of Example 8 and Comparative Example 11, a novel object recognition test was performed to evaluate the object recognition memory. Testing was carried out in a dimly illuminated room (100 lux). The test was performed as described in Joyashiki, E. et sl., Int J Neurosci, 121, 181-190, 2011 and Tohda, C. et al., Int J Neurosci, 121, 641-648, 2011, written by the inventors and others, except that the time interval between a training session and a test session was 48 hours. As a locomotion index, the path of each mouse was tracked using a digital camera system. The distance each mouse traveled during the 10 minutes was analyzed as locomotion activity with EthoVision 3.0 (Noldus, Wageningen, The Netherlands).\nThe diosgenin solution was intraperitoneally administered to normal mice (C57BL/6, male, 8 weeks old) (100 μmol/kg/day) for 14 days. On the day after the 14th administration, the mice were used in the test.\nUsing the mice of Example 9 and Comparative Example 12, the novel object recognition test was performed. The test was performed under the conditions as described above.\nDioscin in an amount of 30 μmol/kg/day was orally administered to normal mice (ddY mice, male, 6 weeks old) for 4 days. Dioscin (Chromadex, Irvine, Calif., USA) was dissolved in ethanol at 10 times the final concentration to give a stock solution, and the stock solution was diluted in a 5% aqueous solution of glucose to the final concentration. […]"}, "[2]": {"tested_on": "normal mice", "assay": "Measurement of spontaneous motor activity", "format": "in vivo, mouse", "details": "normal ddY mice, diosgenin 10 μmol/kg/day i.p., vs vehicle", "method": "as §1\nThe spontaneous motor activity was evaluated based on the distance each mouse traveled in an open field during 10 minutes."}}, "data": [{"smiles": "C[C@@H]1CC[C@@]2(OC1)O[C@H]1C[C@H]3[C@@H]4CC=C5C[C@@H](O)CC[C@]5(C)[C@H]4CC[C@]3(C)[C@H]1[C@@H]2C", "note": "[diosgenin]", "values": [{"measurement": "object recognition memory", "setting": "[1]; normal C57BL/6 mice, diosgenin 100 μmol/kg/day i.p. 14 days", "result": "significantly improved"}, {"measurement": "behavior index of exploratory behavior for the novel object", "setting": "[1]; normal ddY mice, diosgenin 10 μmol/kg/day i.p. 5 or 6 days, 48 hours training-test interval", "result": "higher than 50%"}, {"measurement": "spontaneous motor activity (distance traveled in an open field during 10 minutes)", "setting": "[2]", "result": "no significant difference"}]}]}
